# Values joined by “and” are separate entries in the source; they are usually repeats but may differ in a detail not shown here. Equal entries are not always repeated. Where two headings read alike, the source gives them in different places.
# Key:
# CYP2C19 [1] = biological target: T1, CYP2C19 (Homo sapiens, UniProt P33261); assay: Metabolism of metaxalone by expressed recombinant human CYP2C19 (Example 1); settings: for Metaxalone Present Adjusted Individual / Metaxalone Present Adjusted Mean ± SD / Metaxalone Present Raw / Percent of Metabolic Negative Control Individual / Percent of Metabolic Negative Control Mean ± SD: 36 min;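 for all read-outs here: microsomes with expressed CYP2C19 (10 pmol P450) in Tris buffer with 1% methanol, reaction started by an NADPH regenerating system after 5 min preincubation, 0.5 mL volume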
# T1 sequence (P33261 whole entry): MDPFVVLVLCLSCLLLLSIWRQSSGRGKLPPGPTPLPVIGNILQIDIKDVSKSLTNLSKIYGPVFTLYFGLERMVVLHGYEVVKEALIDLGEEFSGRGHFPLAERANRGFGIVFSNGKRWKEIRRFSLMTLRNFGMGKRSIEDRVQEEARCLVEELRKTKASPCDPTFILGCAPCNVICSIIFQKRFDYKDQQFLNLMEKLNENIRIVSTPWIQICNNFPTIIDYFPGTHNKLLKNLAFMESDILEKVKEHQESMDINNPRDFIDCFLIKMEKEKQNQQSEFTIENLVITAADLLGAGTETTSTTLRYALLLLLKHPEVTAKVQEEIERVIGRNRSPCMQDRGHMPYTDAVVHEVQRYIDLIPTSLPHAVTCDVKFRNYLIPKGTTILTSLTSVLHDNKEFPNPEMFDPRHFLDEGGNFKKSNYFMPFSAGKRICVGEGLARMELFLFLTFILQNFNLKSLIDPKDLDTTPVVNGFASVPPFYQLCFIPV
# Description: (§1) Commercially available microsomes from baculovirus-infected insect cells containing singly-expressed recombinant wild-type (*1 allele) human CYP enzymes and cDNA-expressed human cytochrome p450 oxidoreductase [BD SUPERSOMES Enzymes; BD Biosciences Discovery Labware (Woburn, Mass.)] were used.
# (§2) After a 5-minute pre-incubation, an NADPH regenerating system (NRS) was added to the incubation mixtures to initiate reactions, with a final incubation volume of 0.5 mL. Incubations were continued for 30 minutes, and then terminated, except for those for CYP2C19, which were incubated for 36 minutes prior to termination.
# (§3) Matrix controls were performed to determine the background signal from the matrix components (microsomes (10 pmol p450), 01N Tris buffer, NRS, and 1% methanol). […] After a 5-minute pre-incubation, 2% sodium bicarbonate solution was added to the incubation mixtures. Incubation was for 30 minutes at a final volume of 0.5 mL. Matrix and metabolic negative controls were terminated by adding an equal volume of methanol. […] Analysis of samples was subsequent to storage at −70° C.
# CYP2E1 = CYP2E1 (Homo sapiens, UniProt P05181); assay: Metabolism of metaxalone by expressed recombinant human CYP2E1 (Example 1); settings: 30 min
# Chain of CYP2E1 (P05181 whole entry): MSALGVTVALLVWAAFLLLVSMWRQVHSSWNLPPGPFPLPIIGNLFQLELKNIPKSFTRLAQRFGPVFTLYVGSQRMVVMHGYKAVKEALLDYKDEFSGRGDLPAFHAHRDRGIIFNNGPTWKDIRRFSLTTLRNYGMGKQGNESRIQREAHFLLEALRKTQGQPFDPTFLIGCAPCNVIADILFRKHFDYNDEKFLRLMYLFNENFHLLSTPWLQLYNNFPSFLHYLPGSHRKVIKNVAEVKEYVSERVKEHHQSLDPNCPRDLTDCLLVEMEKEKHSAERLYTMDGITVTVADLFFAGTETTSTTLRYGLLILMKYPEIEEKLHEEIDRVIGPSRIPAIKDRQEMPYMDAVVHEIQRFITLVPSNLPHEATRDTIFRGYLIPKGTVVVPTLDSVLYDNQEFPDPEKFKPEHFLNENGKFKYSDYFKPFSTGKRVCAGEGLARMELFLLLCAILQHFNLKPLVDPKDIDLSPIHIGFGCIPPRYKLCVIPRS
# Description: as §1, §2, §3
# CYP2C9 = CYP2C9 (Homo sapiens, UniProt P11712); assay: Metabolism of metaxalone by expressed recombinant human CYP2C9 (Example 1); settings: 30 min
# Chain of CYP2C9 (P11712 whole entry): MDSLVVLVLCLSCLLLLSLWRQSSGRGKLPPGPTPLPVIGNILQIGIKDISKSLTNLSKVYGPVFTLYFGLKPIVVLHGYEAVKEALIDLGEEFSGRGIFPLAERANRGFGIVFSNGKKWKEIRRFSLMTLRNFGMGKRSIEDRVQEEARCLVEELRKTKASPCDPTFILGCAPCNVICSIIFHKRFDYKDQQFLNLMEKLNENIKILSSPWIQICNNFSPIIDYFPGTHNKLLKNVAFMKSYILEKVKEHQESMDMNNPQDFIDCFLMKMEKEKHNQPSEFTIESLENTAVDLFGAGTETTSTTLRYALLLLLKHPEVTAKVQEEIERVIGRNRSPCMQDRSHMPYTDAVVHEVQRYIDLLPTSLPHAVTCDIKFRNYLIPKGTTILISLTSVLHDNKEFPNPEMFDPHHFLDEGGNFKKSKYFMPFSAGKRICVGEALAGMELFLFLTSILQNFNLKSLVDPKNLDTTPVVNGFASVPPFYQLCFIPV
# Description: as §1, §2, §3
# CYP2C8 = biological target: T2, CYP2C8 (Homo sapiens, UniProt P10632); assay: Metabolism of metaxalone by expressed recombinant human CYP2C8 at 5 or 20 pmol (Example 4); settings: for % Turnover Mean / [metaxalone] Mean / % Turnover % / [metaxalone]: 60 min; for % Turnover % / [metaxalone]: single replicates
# T2 sequence (P10632 1-490): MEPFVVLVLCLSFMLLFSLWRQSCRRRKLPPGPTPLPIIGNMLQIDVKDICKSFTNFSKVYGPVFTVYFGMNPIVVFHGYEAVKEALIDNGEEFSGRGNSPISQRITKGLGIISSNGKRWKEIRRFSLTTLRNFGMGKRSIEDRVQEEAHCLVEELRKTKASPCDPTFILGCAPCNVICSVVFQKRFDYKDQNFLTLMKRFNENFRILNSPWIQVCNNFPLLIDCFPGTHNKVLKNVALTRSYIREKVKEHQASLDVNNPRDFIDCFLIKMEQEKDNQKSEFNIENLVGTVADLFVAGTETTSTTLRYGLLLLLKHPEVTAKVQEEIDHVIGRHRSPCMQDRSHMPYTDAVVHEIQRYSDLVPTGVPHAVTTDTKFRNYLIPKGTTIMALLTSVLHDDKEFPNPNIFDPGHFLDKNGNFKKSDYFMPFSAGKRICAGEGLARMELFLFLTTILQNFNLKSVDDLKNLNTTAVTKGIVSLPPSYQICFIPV
# CYP2C19 [2] = biological target: T1, CYP2C19
# Description: (§4) Microsomes were prepared by differential centrifugation of liver homogenates pooled from at least ten human donors.
# (§5) After a 5 minute preincubation, NADPH regenerating system (NRS) was added to initiate the reaction. CYP2A6 and CYP3A4 incubations were for 10 minutes. All other incubations were for 30 minutes.
# (§6) Incubations for CYP2C8 were terminated by adding 1.0 mL of ACN, while all other incubations were terminated by adding 1.0 mL of methanol.
# (§7) Vehicle control experiments were performed to establish a baseline value for enzyme activity. […] Four replicates were performed.
# (§8) Two replicates were performed. […] No interference was detected in any of the metabolite assay methods used.
# CYP1A2 = biological target: T3, CYP1A2 (Homo sapiens, UniProt P05177); assay: Inhibition of CYP1A2 activity in pooled human liver microsomes (phenacetin 50 μM to acetaminophen); type: in vitro ADME
# T3 sequence (P05177 1-516): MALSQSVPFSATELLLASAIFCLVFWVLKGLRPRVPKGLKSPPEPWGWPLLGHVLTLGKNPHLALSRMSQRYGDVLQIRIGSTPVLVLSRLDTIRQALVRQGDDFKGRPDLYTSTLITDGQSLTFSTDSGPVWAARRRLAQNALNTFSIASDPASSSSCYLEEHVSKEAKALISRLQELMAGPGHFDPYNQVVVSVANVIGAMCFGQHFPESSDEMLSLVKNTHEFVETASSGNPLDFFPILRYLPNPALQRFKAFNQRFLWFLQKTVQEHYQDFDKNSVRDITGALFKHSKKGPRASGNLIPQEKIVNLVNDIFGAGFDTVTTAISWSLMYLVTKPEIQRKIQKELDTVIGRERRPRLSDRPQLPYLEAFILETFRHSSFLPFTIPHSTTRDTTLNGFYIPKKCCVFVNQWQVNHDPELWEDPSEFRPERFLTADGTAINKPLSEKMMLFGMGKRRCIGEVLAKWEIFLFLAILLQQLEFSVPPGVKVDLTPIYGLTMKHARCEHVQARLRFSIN
# Description: as §4, §5, §6, §7, §8
# [3] = 0.75 μM metaxalone, 5 pmol cyp, listed as Metaxalone
# [4] = 0.75 μM metaxalone, 20 pmol cyp
# [5] = 0.75 μM metaxalone, 20 pmol cyp, listed as Metaxalone
# [6] = 7.5 μM metaxalone, 5 pmol cyp, listed as Metaxalone
# [7] = 7.5 μM metaxalone, 20 pmol cyp, listed as Metaxalone
structure (smiles),measurement,setting,value
"Cc1cc(C)cc(OCC2CNC(=O)O2)c1 (centres unmarked) [metaxalone, 5-[(3,5-dimethylphenoxy)methyl]-2-oxazolidinone]",mean disappearance of metaxalone,CYP2C19 [1]; 0.5 μM metaxalone,6.6%
same,Metaxalone Present Adjusted Individual,CYP2C19 [1]; metaxalone 0.5 μM,0.335 µM and 0.344 µM and 0.356 µM
same,Metaxalone Present Adjusted Mean ± SD,CYP2C19 [1]; metaxalone 0.5 μM,0.345 ± 0.0104 µM
same,Metaxalone Present Raw,CYP2C19 [1]; metaxalone 0.5 μM,0.1677 µM and 0.1718 µM and 0.1781 µM
same,Percent of Metabolic Negative Control Individual,CYP2C19 [1]; metaxalone 0.5 μM,90.8% and 93.0% and 96.4%
same,Percent of Metabolic Negative Control Mean ± SD,CYP2C19 [1]; metaxalone 0.5 μM,93.4 ± 2.82%
same,Metaxalone Present Adjusted Individual,CYP2C19 [1]; metaxalone 2.5 μM,1.34 μM (2×) and 1.35 μM
same,Metaxalone Present Adjusted Mean ± SD,CYP2C19 [1]; metaxalone 2.5 μM,1.34 ± 0.00561 µM
same,Metaxalone Present Raw,CYP2C19 [1]; metaxalone 2.5 μM,0.6722 µM and 0.6725 µM and 0.6675 µM
same,Percent of Metabolic Negative Control Individual,CYP2C19 [1]; metaxalone 2.5 μM,96.7% (2×) and 96.0%
same,Percent of Metabolic Negative Control Mean ± SD,CYP2C19 [1]; metaxalone 2.5 μM,96.5 ± 0.404%
same,Metaxalone Present Adjusted Individual,CYP2C19 [1]; metaxalone 25 μM,18.7 μM (2×) and 18.5 μM
same,Metaxalone Present Adjusted Mean ± SD,CYP2C19 [1]; metaxalone 25 μM,18.6 ± 0.120 µM
same,Metaxalone Present Raw,CYP2C19 [1]; metaxalone 25 μM,9.345 µM and 9.359 µM and 9.249 µM
same,Percent of Metabolic Negative Control Individual,CYP2C19 [1]; metaxalone 25 μM,92.9% and 93.0% and 91.9%
same,Percent of Metabolic Negative Control Mean ± SD,CYP2C19 [1]; metaxalone 25 μM,92.6 ± 0.597%
same,Metaxalone Present Adjusted Individual,CYP2E1; metaxalone 0.5 μM,0.357 µM and 0.345 µM and 0.353 µM
same,Metaxalone Present Adjusted Mean ± SD,CYP2E1; metaxalone 0.5 μM,0.352 ± 0.00648 µM
same,Metaxalone Present Raw,CYP2E1; metaxalone 0.5 μM,0.1787 µM and 0.1724 µM and 0.1766 µM
same,Percent of Metabolic Negative Control Individual,CYP2E1; metaxalone 0.5 μM,101% and 97.0% and 99.4%
same,Percent of Metabolic Negative Control Mean ± SD,CYP2E1; metaxalone 0.5 μM,99.0 ± 1.83%
same,Metaxalone Present Adjusted Individual,CYP2E1; metaxalone 2.5 μM,1.77 μM and 1.76 μM (2×)
same,Metaxalone Present Adjusted Mean ± SD,CYP2E1; metaxalone 2.5 μM,1.76 ± 0.00318 µM
same,Metaxalone Present Raw,CYP2E1; metaxalone 2.5 μM,0.883 µM and 0.8799 µM and 0.8821 µM
same,Percent of Metabolic Negative Control Individual,CYP2E1; metaxalone 2.5 μM,104%
same,Percent of Metabolic Negative Control Mean ± SD,CYP2E1; metaxalone 2.5 μM,104 ± 0.188%
same,Metaxalone Present Adjusted Individual,CYP2E1; metaxalone 25 μM,17.5 µM and 22.3 µM and 17.8 µM
same,Metaxalone Present Adjusted Mean ± SD,CYP2E1; metaxalone 25 μM,19.2 ± 2.71 µM
same,Metaxalone Present Raw,CYP2E1; metaxalone 25 μM,8.732 µM and 11.15 µM and 8.879 µM
same,Percent of Metabolic Negative Control Individual,CYP2E1; metaxalone 25 μM,98.2% and 125% and 99.9%
same,Percent of Metabolic Negative Control Mean ± SD,CYP2E1; metaxalone 25 μM,108 ± 15.3%
same,Metaxalone Present Adjusted Individual,CYP2C9; metaxalone 0.5 μM,0.360 µM and 0.348 µM
same,Metaxalone Present Adjusted Mean ± SD,CYP2C9; metaxalone 0.5 μM,0.355 ± 0.00608 µM
same,Metaxalone Present Raw,CYP2C9; metaxalone 0.5 μM,0.18 µM and 0.1778 µM and 0.174 µM
same,Percent of Metabolic Negative Control Individual,CYP2C9; metaxalone 0.5 μM,103% and 102%
same,Percent of Metabolic Negative Control Mean ± SD,CYP2C9; metaxalone 0.5 μM,102 ± 1.75%
same,Metaxalone Present Adjusted Individual,CYP2C9; metaxalone 2.5 μM,1.94 µM and 1.93 µM and 1.89 µM
same,Metaxalone Present Adjusted Mean ± SD,CYP2C9; metaxalone 2.5 μM,1.92 ± 0.0246 µM
same,Metaxalone Present Raw,CYP2C9; metaxalone 2.5 μM,0.9684 µM and 0.9659 µM and 0.946 µM
same,Percent of Metabolic Negative Control Individual,CYP2C9; metaxalone 2.5 μM,101% and 100%
same,Percent of Metabolic Negative Control Mean ± SD,CYP2C9; metaxalone 2.5 μM,99.7 ± 1.28%
same,Metaxalone Present Adjusted Individual,CYP2C9; metaxalone 25 μM,21.3 µM and 21.6 µM and 21.5 µM
same,Metaxalone Present Adjusted Mean ± SD,CYP2C9; metaxalone 25 μM,21.5 ± 0.144 µM
same,Metaxalone Present Raw,CYP2C9; metaxalone 25 μM,10.66 µM and 10.8 µM and 10.73 µM
same,Percent of Metabolic Negative Control Individual,CYP2C9; metaxalone 25 μM,100% and 102% and 101%
same,Percent of Metabolic Negative Control Mean ± SD,CYP2C9; metaxalone 25 μM,101 ± 0.675%
same,% Turnover Mean,"CYP2C8; 0.75 μM metaxalone, 5 pmol cyp",−9.3%
same,[metaxalone] Mean,"CYP2C8; 0.75 μM metaxalone, 5 pmol cyp",0.865 µM
same,% Turnover %,CYP2C8; [3],−2.6% and −10.9% and −14.3%
same,[metaxalone],CYP2C8; [3],0.812 µM and 0.877 µM and 0.905 µM
same,% Turnover Mean,CYP2C8; [4],2.9%
same,[metaxalone] Mean,CYP2C8; [4],0.768 µM
same,% Turnover %,CYP2C8; [5],0.19% and 6.1% and 2.5%
same,[metaxalone],CYP2C8; [5],0.790 µM and 0.743 µM and 0.771 µM
same,% Turnover Mean,"CYP2C8; 7.5 μM metaxalone, 5 pmol cyp",3.0%
same,[metaxalone] Mean,"CYP2C8; 7.5 μM metaxalone, 5 pmol cyp",8.20 µM
same,% Turnover %,"CYP2C8; 7.5 μM metaxalone, 5 pmol cyp",−1.6%
same,% Turnover %,CYP2C8; [6],0.21%
same,[metaxalone],CYP2C8; [6],7.58 µM and 8.43 µM and 8.58 µM
same,% Turnover Mean,"CYP2C8; 7.5 μM metaxalone, 20 pmol cyp",9.3%
same,[metaxalone] Mean,"CYP2C8; 7.5 μM metaxalone, 20 pmol cyp",7.66 µM
same,% Turnover %,CYP2C8; [7],4.3% and 10.2% and 13.4%
same,[metaxalone],CYP2C8; [7],8.09 µM and 7.59 µM and 7.31 µM
same,Substrate,"CYP2C8; CYP isozyme 2C8, summary of studies",+
same,inhibition of CYP activity at a statistically significant level,"CYP2C19 [2]; 0.3-100 μM metaxalone, p≦0.05",inhibited
same,Inhibitor,"CYP2C19 [2]; CYP isozyme 2C19, summary of studies",+
same,Percent of VC,CYP2C19 [2]; metaxalone 0.3 μM,84.6%
same,Specific Activity Individual,CYP2C19 [2]; metaxalone 0.3 μM,19.4 pmol/min/mg protein and 18.9 pmol/min/mg protein
same,Specific Activity Mean ± SD,CYP2C19 [2]; metaxalone 0.3 μM,19.0 ± 0.399 pmol/min/mg protein
same,Percent of VC,CYP2C19 [2]; metaxalone 1 μM,67.0%
same,Specific Activity Individual,CYP2C19 [2]; metaxalone 1 μM,14.8 pmol/min/mg protein
same,Specific Activity Mean ± SD,CYP2C19 [2]; metaxalone 1 μM,15.0 ± 0.186 pmol/min/mg protein
same,Percent of VC,CYP2C19 [2]; metaxalone 3 μM,67.7%
same,Specific Activity Individual,CYP2C19 [2]; metaxalone 3 μM,15.5 pmol/min/mg protein and 14.8 pmol/min/mg protein
same,Specific Activity Mean ± SD,CYP2C19 [2]; metaxalone 3 μM,15.2 ± 0.317 pmol/min/mg protein
same,Percent of VC,CYP2C19 [2]; metaxalone 30 μM,63.8%
same,Specific Activity Individual,CYP2C19 [2]; metaxalone 30 μM,11.1 pmol/min/mg protein and 16.5 pmol/min/mg protein and 15.3 pmol/min/mg protein
same,Specific Activity Mean ± SD,CYP2C19 [2]; metaxalone 30 μM,14.3 ± 2.82 pmol/min/mg protein
same,Percent of VC,CYP2C19 [2]; metaxalone 100 μM,64.9%
same,Specific Activity Individual,CYP2C19 [2]; metaxalone 100 μM,14.5 pmol/min/mg protein and 14.8 pmol/min/mg protein and 14.3 pmol/min/mg protein
same,Specific Activity Mean ± SD,CYP2C19 [2]; metaxalone 100 μM,14.5 ± 0.274 pmol/min/mg protein
same,inhibition of CYP activity at a statistically significant level,"CYP1A2; 0.3-100 μM metaxalone, p≦0.05",inhibited
same,Inhibitor,"CYP1A2; CYP isozyme 1A2, summary of studies",+
same,Percent of VC,CYP1A2; metaxalone 0.3 μM,97.2%
same,Specific Activity Individual,CYP1A2; metaxalone 0.3 μM,28.6 pmol/min/mg protein and 27.2 pmol/min/mg protein
same,Specific Activity Mean ± SD,CYP1A2; metaxalone 0.3 μM,28.0 ± 0.715 pmol/min/mg protein
same,Percent of VC,CYP1A2; metaxalone 1 μM,92.3%
same,Specific Activity Individual,CYP1A2; metaxalone 1 μM,26.6 pmol/min/mg protein
same,Specific Activity Mean ± SD,CYP1A2; metaxalone 1 μM,26.6 ± 0.327 pmol/min/mg protein
same,Percent of VC,CYP1A2; metaxalone 3 μM,90.3%
same,Specific Activity Individual,CYP1A2; metaxalone 3 μM,26.5 pmol/min/mg protein and 25.1 pmol/min/mg protein and 26.4 pmol/min/mg protein
same,Specific Activity Mean ± SD,CYP1A2; metaxalone 3 μM,26.0 ± 0.785 pmol/min/mg protein
same,Percent of VC,CYP1A2; metaxalone 30 μM,89.8%
same,Specific Activity Individual,CYP1A2; metaxalone 30 μM,25.2 pmol/min/mg protein and 25.8 pmol/min/mg protein and 26.7 pmol/min/mg protein
same,Specific Activity Mean ± SD,CYP1A2; metaxalone 30 μM,25.9 ± 0.725 pmol/min/mg protein
same,Percent of VC,CYP1A2; metaxalone 100 μM,82.0%
same,Specific Activity Individual,CYP1A2; metaxalone 100 μM,23.7 pmol/min/mg protein and 23.6 pmol/min/mg protein (2×)
same,Specific Activity Mean ± SD,CYP1A2; metaxalone 100 μM,23.6 ± 0.0275 pmol/min/mg protein
